In US9597347B2, “Compositions for treating obesity and insulin resistance disorders” (President and Fellows of Harvard College, priority 2003, dated 2017):

Legend:
[1] = test system: Wild-type N2 C. elegans worms; test: Nile Red staining of fat accumulation in wild-type N2 C. elegans; format: in vivo; conditions: overnight
Procedure: Wild-type N2 C. elegans worms were grown on OP50 bacteria and exposed overnight to vehicle (0.1% ethanol) alone or with 10, 50 or 100 μM of resveratrol (in ethanol). Fat accumulation was visualized with Nile Red staining, as described further below and in Ashrafi K, et al. Nature 421:268-27 (2003).
Synchronized starved L1 worms were grown in the presence of Nile Red. Strains were grown on NGM plates at 25° C. for approximately 48 hours until the young adult stage was reached. 20-30 young adult worms were then washed 2× with M9 buffer and transferred to new NGM/Nile red experimental plates that contained either OP50 or HTT5 E. coli carrying the L4440 RNAi control vector. For experiments comparing the effect of nicotinamide and resveratrol on fat mobilization, OP50 plates were coated with vehicle alone or Nicotinamide (in PBS), or vehicle alone and Resveratrol (in Ethanol or DMSO).
Resveratrol (Indofine #024964) was dissolved in Ethanol or DMSO to a 10 mM stock solution. Resveratrol was added to 60 mm NGM agar dishes containing either OP50 or RNAi expressing bacteria (HT115) to a final concentration of 10 μm, 50 μm, and 100 μM. Nile Red was also added to plates to a final concentration of 0.05 μg/ml. Nicotinamide (Supelco #47865-U) was diluted in PBS including Nile Red and added to […] dishes containing OP50 to a final concentration of 1 mM, 10 mM, or 100 mM.
Nile Red: Nile Red Powder (Sigma #N-3013) was dissolved in acetone at 500 μg/ml, diluted in 1× Phosphate Buffered Saline (PBS) including appropriate drug and applied to surface of Nematode Growth Media (NGM) plates previously seeded with OP50 or RNAi bacteria, at a final concentration of 0.05 μg/ml. Fat content was monitored and recorded by fluorescence microscopy.
Nile Red Staining was visualized by using a Nikon TE2000S microscope equipped with a CY3 filter (emission 535-685 nm). Images were captured using a SPOT RT monochrome digital camera attached to the Nikon Microscope with SPOT RT software v3.5. All Nile red images were acquired using identical settings and exposure times and then changed to red palette.

[2] = test system: phosphorylation of AMPK on threonine 172 and of ACC on serine 79; test: Western analysis of AMPK and ACC phosphorylation in CHO-HIR cells; format: cell-based
Procedure: CHO-HIR mammalian cells were washed in PBS and incubated overnight in serum-free DMEM before treatment with 500 μM AICAR (positive control) or 12.5 μM, 25 μM or 50 μM resveratrol. Cells were harvested after 30 minutes and lysates were immediately boiled in SDS and subjected to Western analysis with site-specific antibodies. Phosphorylation of AMPK at Thr172 indicates activation of the kinase. Active AMPK phosphorylates and inactivates ACC at serine 79.
CHO cells were also treated with 500 μM AICAR (positive control), DMSO, 100 nM, 500 nM, 2.5 μM, 12.5 μM, 25 μM, or 50 μM resveratrol and subject to Western Blot analysis as described above. Western blots were stripped and re-probed for phosphorylated (active) AMPK, total AMPK, phosphorylated acetyl CoA carboxylase (ACC), which is the downstream target of AMPK, and tubulin, which served as a loading control.

[3] = test system: phosphorylation of ACC; test: Western blot of ACC phosphorylation in HEP3B human hepatoma cells; format: cell-based; conditions: resveratrol-treated cells with SIRT1 overexpressed or knocked down
Procedure: Similar results were also observed for HEP3B human hepatoma cells. In this case phosphorylation of ACC was measured in cells were SIRT1 was overexpressed (see FIG. 9, 4 right lanes) and in cells were SIRT1 was knocked down (FIG. 9, left lane). […] Tubulin served as a loading control.

[4] = test system: AMPK and ACC phosphorylation; test: Western blot of AMPK and ACC phosphorylation in mouse embryonic fibroblasts; format: cell-based; conditions: LKB1−/− cells; 50, 100, 200 μM
Procedure: Similar results were also observed in mouse embryonic fibroblast (MEFs). […] Cells in the left panel were incubated overnight without serum before harvesting; the cells on the right were not incubated under serum free conditions. […] Tubulin served as a loading control.

[5] = test system: H4IIEC3 cells; test: Oxidation of 14C-palmitate in H4IIEC3 cells; format: cell-based; conditions: resveratrol 10 μM in 1% DMSO, AICAR 500 μM in H2O, metformin 1 mM in H2O; 4 hours; vehicle = 1
Procedure: (§1) Oxidation of 14C-palmitate to acid-soluble products (modified from H4IIEC3 cells [Witters, L. A. and B. E. Kemp, Insulin activation of acetyl-CoA carboxylase accompanied by inhibition of the 5′-AMP-activated protein kinase. J Biol Chem, 1992. 267(5): p. 2864-7] and HepG2 cells were maintained as described above. Cells (10^6 cells/T25) were seeded in a T25 flask one day prior to the experiment. On the day of the experiment cells were washed with assay buffer (114 mM NaCl, 4.7 mM KCL, 1.2 mM KH2PO4, 1.2 mM MgSO4, 11 mM glucose) before labeling with 14C-palmitate (0.4 μCi/ml) in presence of vehicle, or resveratrol (10 μM), or AICAR (500 μM) for 4 hours.
(§2) At the end of incubation, the cap of each T25 flask was replaced with a stopper and a 1′×1.5″ Whatman filter paper soaked with 250 μl 2N NaOH. Each flask was injected with 2 ml of 6N HCL, placed in a horizontal position for 10 minutes and left standing overnight. The next morning, 1 ml H2O and 61 μl NaOH were added to a glass scintillation vial and the filter papers from each T25 flask were transferred to their respective vial. 10 ml Aquasol was added to each vial and allowed to stand for 2 hours, after which the vials were vortexed to dissolve the […] and counted in the scintillation counter. The results were expressed as nmols/h/106 cells and shown as the fold effect. ^14CO2 production ranged from 0.3 to 1.8 nmols/h/106 cells. The experiment was repeated three times.

[6] = test system: HepG2 cells; test: Oxidation of 14C-palmitate in HepG2 cells; format: cell-based; conditions: resveratrol 10 μM in 1% DMSO, AICAR 500 μM in H2O, metformin 1 mM in H2O; 4 hours; vehicle = 1
Procedure: as §1, §2

`Oc1ccc(/C=C/c2cc(O)cc(O)c2)cc1` [resveratrol, 3,5,4′-Trihydroxy-trans-stilbene] was tested, and the fat accumulation ([1]; 10 μM or 50 μM) was “marked decrease in fat accumulation”, the “reduction of fat accumulation” value ([1]; 100 μM) was 90% and the “activation of AMPK (phosphorylated AMPK and ACC)” value ([2]; CHO cells, 100 nM, 500 nM, 2.5, 12.5, 25 or 50 μM) was “activation of AMPK in CHO cells with increasing concentrations of resveratrol”. The “phosphorylation of AMPK (threonine 172) and ACC (serine 79)” value ([2]; resveratrol 12.5, 25 or 50 μM, AICAR 500 μM (positive control), 30 minutes, serum-free overnight) was “stimulates phosphorylation of AMPK and ACC”, the “phosphorylation of ACC” value [3] was “Phosphorylation of ACC was not affected” and the “AMPK and ACC phosphorylation” value [4] was “still causes an upregulation of both AMPK and ACC phosphorylation”. The “14C-CO2 production (Fold Effect)” value [5] was 2.3 Fold Effect and the “14C-CO2 production (Fold Effect)” value [6] was 6 Fold Effect.
